Measured values taken from patent publication US20020115884A1, “Process for producing a hydrogenation product of an aromatic carboxylic acid” (priority 2000, published 2002).

Experiment: Solubility in water
Format: physicochemical

Row | Structure (SMILES) | Solubility in water (Temperature 150° C.) | Solubility in water (Temperature 200° C.)
1 | O=C(O)c1ccc2cc(C(=O)O)ccc2c1 [2,6-naphthalenedicarboxylic acid] | 0.03 g/100 g-water | 0.21 g/100 g-water
2 | O=C(O)c1ccc(-c2ccc(C(=O)O)cc2)cc1 [4,4′-biphenyldicarboxylic acid] | 0.01 g/100 g-water | 0.04 g/100 g-water
3 | O=C(O)c1cccc(C(=O)O)c1 [Isophthalic acid] | 2.7 g/100 g-water | 24.2 g/100 g-water
4 | O=C(O)c1ccc(C(=O)O)cc1 [Terephthalic acid] | 0.25 g/100 g-water | 1.7 g/100 g-water
